Key:
[1] = system: Male, Swiss Webster mice; assay: Dose response for the locomotor stimulatory effects of cocaine; type: in vivo; conditions: cocaine 0-20 mg/kg i.p., 30 min
[2] = system: Male, Swiss Webster mice; assay: Attenuation of cocaine-induced locomotor activity; type: in vivo; conditions: saline pre-treatment, cocaine 0-20 mg/kg i.p.
[3] = system: Male, Swiss Webster mice; assay: Shift of the cocaine convulsion dose curve by sigma receptor agonists; conditions: saline pre-treatment, cocaine 0-60 mg/kg i.p.
[4] = system: Male, Swiss Webster mice; assay: Dose response for the behavioral toxic effects of cocaine (convulsions, death)
[5] = after lethal dose of cocaine 125 mg/kg i.p.
[6] = cocaine alone 0-150 mg/kg i.p., observed 30 min

COC(=O)[C@H]1[C@@H](OC(=O)c2ccccc2)C[C@@H]2CC[C@H]1N2C [cocaine]
dose that produced the peak level of locomotor activity [1]: 10 mg/kg, i.p. | ED50 for the locomotor stimulatory effects of cocaine [2]: 6 mg/kg, i.p. | ED50 for cocaine-induced convulsions [3]: 58 mg/kg, i.p. | time at which mice are dead [4, 5]: about 4.5 minutes | time at which mice begin convulsing [4, 5]: approximately 2 minutes | ED50 for cocaine-induced convulsions [4, 6]: 59 mg/kg, i.p. | LD50 for cocaine-induced lethality [4, 6]: 108 mg/kg, i.p.

Source: patent US20030171347A1, “Sigma receptor antagonists having anti-cocaine properties and uses thereof” (priority 1998, published 2003)
